Measurements: article PMC12376128, “In vitro and In Vivo Drug Metabolism Analysis of BPI-460372 - A Covalent TEAD1/3/4 Inhibitor” (Current Drug Metabolism, 2025)

Experiments:
[1] = 4-week toxicity study; type: in vivo; details: rats
[2] = Metabolite identification in rat plasma, urine, feces and bile; type: in vivo, SD rats
How it was run: (§1)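 Pooled sex-specific samples from SD rats: plasma after 12 mg/kg, urine, feces and bile (collected over 0-48 h) after 6 mg/kg; beagle dog plasma after 8 mg/kg. Acetonitrile extraction (urine centrifuged only), dried, redissolved in acetonitrile/water 20:80, analysed by UHPLC-Orbitrap-HRMS.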

[3] = Metabolite identification in dog plasma; type: in vivo, beagle dogs; details: oral 8 mg/kg BPI-460372, average of male and female pooled samples
How it was run: as §1

[4] = Stability in plasma; type: in vitro ADME; details: mouse plasma, 37°C, 4 h
[5] = target: T1, CYP2B6 (Homo sapiens, UniProt P20813); experiment: Metabolic stability in HLMs with or without specific CYP inhibitor (ticlopidine 20 µM); type: in vitro ADME; details: HLMs 1 mg protein/mL, substrate 1 μM
T1 construct: HLMs (1 mg protein·mL^-1); tissue BioIVT; host or cells: pooled human liver microsomes
T1 sequence (P20813 1-491): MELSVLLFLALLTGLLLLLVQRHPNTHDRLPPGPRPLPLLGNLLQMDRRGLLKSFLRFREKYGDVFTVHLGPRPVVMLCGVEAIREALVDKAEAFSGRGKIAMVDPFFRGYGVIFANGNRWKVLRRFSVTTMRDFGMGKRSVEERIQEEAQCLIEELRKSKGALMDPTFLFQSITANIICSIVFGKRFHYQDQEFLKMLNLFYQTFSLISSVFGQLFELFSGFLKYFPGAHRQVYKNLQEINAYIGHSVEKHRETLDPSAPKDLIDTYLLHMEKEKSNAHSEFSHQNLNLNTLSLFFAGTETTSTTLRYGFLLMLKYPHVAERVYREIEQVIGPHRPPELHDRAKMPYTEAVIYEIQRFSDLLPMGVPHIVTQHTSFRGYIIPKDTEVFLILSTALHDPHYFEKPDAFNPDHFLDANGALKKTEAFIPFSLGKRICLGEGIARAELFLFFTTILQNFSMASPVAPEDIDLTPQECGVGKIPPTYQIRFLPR
Description: Before starting the experiments, the HLMs were thawed gently on ice. Metabolic stability incubations were performed at 37 °C. […] The incubation process started with the addition of NADPH (1 mM final concentration) after a 5-minute preincubation period. The chemical inhibitors were as follows: a-naphthoflavone (2 µM) for CYP1A2, ticlopidine (20 µM) for 2B6, quercetin (20 µM) for CYP2C8, sulfaphenazole (20 µM) for CYP2C9, ticlopidine (200 µM) for CYP2C19, quinidine (20 µM) for CYP2D6, and ketoconazole (20 µM) for CYP3A [9]. Aliquots were maintained in acetonitrile containing internal standard (IS) at various time points, such as 0 min, 5 min, 10 min, 20 min, 30 min, and 60 min. All incubations were performed in triplicate, and the concentration in the supernatant was determined by liquid chromatography-tandem mass spectrometry (LC-MS/MS).
(§2) The elimination rate constant k (min^-1) was obtained by linear regression from the natural logarithm of the […] of the parent drug and the incubation time. The inhibition rate was calculated using equation 1 [10]: […]

[6] = system: CYP3A4; experiment: Metabolic stability in HLMs with or without specific CYP inhibitor (ketoconazole); type: in vitro ADME, human; details: HLMs 1 mg protein/mL, substrate 1 μM, ketoconazole 20 µM
Description: Before starting the experiments, the HLMs were thawed gently on ice. Metabolic stability incubations were performed at 37 °C. The incubations contained 100 mM phosphate buffer saline (PBS, pH 7.4), HLMs (1 mg protein·mL^-1), dimethyl sulfoxide (DMSO, blank control) or a selective CYP inhibitor, and BPI-460372 or positive control substrates (final incubation concentration, 1 μM). The incubation process started with the addition of NADPH (1 mM final concentration) after a 5-minute preincubation period. The chemical inhibitors were as follows: a-naphthoflavone (2 µM) for CYP1A2, ticlopidine (20 µM) for 2B6, quercetin (20 µM) for CYP2C8, sulfaphenazole (20 µM) for CYP2C9, ticlopidine (200 µM) for CYP2C19, quinidine (20 µM) for CYP2D6, and ketoconazole (20 µM) for CYP3A [9]. Aliquots were maintained in acetonitrile containing internal standard (IS) at various time points, such as 0 min, 5 min, 10 min, 20 min, 30 min, and 60 min. All incubations were performed in triplicate, and the concentration in the supernatant was determined by liquid chromatography-tandem mass spectrometry (LC-MS/MS).
as §2

[7] = system: human hepatocytes; experiment: Metabolism and metabolite formation in hepatocytes; details: human hepatocytes, 10 µM BPI-460372, 4 h incubation
[8] = oral 6 mg/kg BPI-460372, average of male and female pooled samples

C=C(F)C(=O)N1CC(n2c(=O)n(-c3ccc(C(F)(F)F)cc3)c3nccnc32)C1 [BPI-460372]
Main target organs [1]: kidney
Relative abundance of MS peak areas, Rat Bile 0-48 h [2, 8]: 0.67%
Relative abundance of MS peak areas, Rat Feces 0-48 h [2, 8]: 16.95%
Relative abundance of MS peak areas, Rat Urine 0-48 h [2, 8]: 0.12%
Relative abundance of MS peak areas, Rat Plasma 0-24 h ([2]; oral 12 mg/kg BPI-460372, average of male and female pooled samples): 75.36%
Relative abundance of MS peak areas, Dog Plasma 0-48 h [3]: 30.93%
Stability in plasma [4]: stable
Inhibition Rate [5]: -11.5%
Inhibition Rate [6]: 9.1%
UV (314 nm) Peak Areas Relative Abundance [7]: 76.96%
